Measured values reported in publication PMC4610172, “5-Arylaminouracil Derivatives as Potential Dual-Action Agents” (Acta Naturae, 2015).

Assays:
[1] = system: Mycobacterium tuberculosis; set-up: method as in PMID 26061192; details: cited from earlier work
MT-4 cell line = assay: Cytotoxicity in vitro in MT-4 cells (propidium iodide uptake, automatic cell counter); type: cell-based; details: highest concentration tested
Protocol: We tested the compounds for potential cytotoxicity in the MT-4 cell line using an automatic cell counter (ChemoMetec). The number of live and dead cells was counted in the control cultures, and the cultures were treated with compound (6), (7), or (19). Compounds (6) and (7) were tested at concentrations of 0.136–33 μM (0.035–9 μg/mL), and compound (19) was tested at concentrations of 0.272–66 μM (0.119–28 μg/mL).
We discriminated live from dead cells by evaluating propidium iodide uptake according to the manufacturer’s instructions. We collected and analyzed data using the Nucleoview software (version 1.0,ChemoMetec).

human tonsillar tissue = assay: Toxicity ex vivo in human tonsillar tissue (flow cytometry of cell phenotypes); type: cell-based; details: 12 days culture
Protocol: The cytotoxicity of compounds (6), (7), and (19) was determined in human tonsillar tissues. A total of 27 tissue blocks were incubated with compound (19) (20 μg/mL) or with compound (6) or (7) ( 5 μg/mL) for each experimental point. Tissue blocks were cultured for 12 days. Then, the cells were isolated from the control and treated and stained with combinations of fluorescence- labeled antibodies against CD3-QD605, CD4- QD655, CD8-QD705, CD25-APC, CD38-PE, HLA-DRAPC- Cy7, CXCR4-Brilliant violet 421, CCR5-PR-Cy5 CD45RA-FITC, and CCR7-PE-Cy7 (Caltag Laboratories; Biolegend). We determined the numbers of cells of different phenotypes in isolated suspensions using flow cytometry as previously described. The volume of an analyzed suspension was controlled by means of Trucount beads (Becton Dickinson); the number of counted cells was normalized to the weight of the tissue fragments used for cell isolation.

[2] = molecular target: T1, HIV-1 reverse transcriptase (p66/p51 heterodimer) (Human immunodeficiency virus type 1 group M subtype B, UniProt P04585); assay: Inhibition of recombinant HIV-1 reverse transcriptase (Dixon's method, noncompetitive); type: biochemical; details: Dixon's method for noncompetitive inhibitors; read-out: Ki (inhibition constant)
T1 construct: recombinant HIV-1 reverse transcriptase (p66/p51 heterodimer); made in house
Protocol: Isolation of recombinant HIV-1 reverse transcriptase (p66/p51 heterodimer) and determination of its activity were performed as described earlier. The inhibition constant (Ki), calculated according to Dixon’s method for noncompetitive inhibitors, was used as a quantitative measure of the inhibitory activity of the compounds. Nevirapine, a first-generation HIV NNRTI, was used as a control.

SMILES	Concentration of total inhibition of mycobacterium growth [1] [µg/mL]	Maximum concentration at which neither cytotoxic nor cytostatic effect was observed (MT-4 cell line) [µM]	Ki [2] [µM]	other results
Cc1cccc(Nc2c[nH]c(=O)[nH]c2=O)c1 [Compound 2]	5 to 40	–	–	–
Cc1ccc(Nc2c[nH]c(=O)[nH]c2=O)cc1 [Compound 3]	5 to 40	–	–	–
CCCCc1ccc(Nc2c[nH]c(=O)[nH]c2=O)cc1 [Compound 6]	5 to 40	≥ 33	–	Cytotoxicity on different cell types in the tissue (T, B, CD4+, CD8+ and CD4+ subgroups) (human tonsillar tissue; 5 μg/mL): lack of significant death rates
CCCCOc1ccc(Nc2c[nH]c(=O)[nH]c2=O)cc1 [Compound 7]	5 to 40	≥ 33	–	Cytotoxicity on different cell types in the tissue (T, B, CD4+, CD8+ and CD4+ subgroups) (human tonsillar tissue; 5 μg/mL): lack of significant death rates
CCCCc1ccc(Nc2n[nH]c(=O)[nH]c2=O)cc1 [Compound 10]	5 to 40	–	–	–
O=c1[nH]c(=O)n(C2C=CC(O)C2)cc1Nc1ccc(Oc2ccccc2)cc1 (stereo not drawn) [Compound 15]	–	–	119	–
CCCCOc1ccc(Nc2cn(C3C=CC(O)C3)c(=O)n(C3C=CC(O)C3)c2=O)cc1 (stereo not drawn) [Compound 19]	5 to 40	≥ 66	–	Cytotoxicity on different cell types in the tissue (T, B, CD4+, CD8+ and CD4+ subgroups) (human tonsillar tissue; 20 μg/mL): lack of significant death rates
O=c1c(Nc2ccccc2)cn(C2C=CC(O)C2)c(=O)n1Cc1ccccc1 (stereo not drawn) [Compound 21, 1-(4’-Hydroxy-2’-cyclopenten-1’-yl)-3-benzyl-5-(phenylamino) uracil]	–	–	> 100	–
Cc1ccc(Nc2cn(C3C=CC(O)C3)c(=O)n(Cc3ccccc3)c2=O)cc1 (stereo not drawn) [Compound 22, 1-(4’-Hydroxy-2’-cyclopenten-1’-yl)-3-benzyl-5-(p-methylphenylamino) uracil]	–	–	60	–
